Target: Carboxypeptidase A1 (Bos taurus) (UniProt P00730)
Assay: The compound was evaluated for the inhibition of Carboxypeptidase A

Carboxypeptidase A1 (Bos taurus), sequence (P00730 whole entry, looked up): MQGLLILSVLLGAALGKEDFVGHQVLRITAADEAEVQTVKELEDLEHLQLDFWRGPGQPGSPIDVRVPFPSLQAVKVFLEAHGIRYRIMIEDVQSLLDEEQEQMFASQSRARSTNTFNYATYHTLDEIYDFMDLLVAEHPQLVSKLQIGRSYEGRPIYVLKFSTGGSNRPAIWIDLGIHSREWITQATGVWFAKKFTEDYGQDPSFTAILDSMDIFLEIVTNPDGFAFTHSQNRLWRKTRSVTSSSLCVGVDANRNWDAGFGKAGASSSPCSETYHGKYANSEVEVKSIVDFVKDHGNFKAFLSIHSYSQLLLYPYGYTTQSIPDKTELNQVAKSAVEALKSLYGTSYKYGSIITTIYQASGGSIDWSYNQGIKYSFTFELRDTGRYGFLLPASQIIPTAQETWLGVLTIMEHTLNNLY

Ki [nM]	Compound
5000	O=C(O)CCC(Cc1ccccc1)C(=O)O (configuration not stated) [2-Benzyl-pentanedioic acid]
450	O=C(O)C[C@@H](Cc1ccccc1)C(=O)O [2-benzylbutanedioic acid]
